Paper PMC12693167, “Design, Synthesis and Anticancer Activity of 6-Substituted-1-(3,4,5-trimethoxyphenyl)-1H-indole Against Tubulin Polymerisation” (Molecules, 2025)

Legend:
[1] = molecular target: T1, Porcine brain tubulin protein (Sus scrofa, UniProt P02554); assay: In vitro tubulin polymerization assay; type: biochemical
T1 construct: Porcine brain tubulin protein was dissolved in EM buffer; from tissue; host or cells: porcine brain
Experimental: The ability of compound 3g to disrupt microtubule dynamics was assessed using an in vitro tubulin polymerization assay.
Porcine brain tubulin protein was dissolved in EM buffer containing 5% glycerol (80 mM PIPES, 2 mM GTP, 2 mM MgCl2, and 0.5 mM EGTA, pH 6.9). Compounds were diluted in EM buffer to final concentrations of 50, 25, 10, 5, and 2.5 μM and added to a pre-warmed 384-well plate, followed by pre-incubation at 37 °C. Subsequently, 14 μL of the tubulin-GTP mixture was added to each well containing the test compounds. Tubulin polymerization was monitored by measuring absorbance at 340 nm every minute for 60 min. […] Each assay was performed in triplicate.
Absorbance at 340 nm was determined every 1 min.

[2] = tested on: B16-F10 cells; assay: CCK-8 antiproliferative assay, B16-F10; type: cell-based, murine; conditions: Mus musculus, cell viability (CCK-8), 48 h
Experimental: To evaluate the anticancer potential of the synthesized compounds, a panel of six human and murine cancer cell lines representing different tissue origins was selected, including MCF-7 (human breast adenocarcinoma), MDA-MB-231 (human triple-negative breast cancer), A549 (human non-small cell lung cancer), HeLa (human cervical cancer), A375 (human melanoma), and B16-F10 (murine melanoma) (Table 2). […] DMSO was used as the vehicle control, and all experiments were performed in triplicate to ensure reproducibility.
Human breast cancer cells (MCF-7), human lung cancer cells (A549), human cervical cancer cells (HeLa), human triple-negative breast cancer cells (MDA-MB-231), and human malignant melanoma cells (A375) were cultured in DMEM. Mouse melanoma cells (B16F10) were maintained in RPMI-1640 medium. All media were supplemented with 10% fetal bovine serum and 1% penicillin-streptomycin (Life Technologies, Carlsbad, CA, USA) and maintained at 37 °C in a humidified atmosphere with 5% CO2.
The cytotoxicity of the test compounds was evaluated against MCF-7, A549, HeLa, MDA-MB-231, A375, and B16F10 using the CCK-8 assay. Cells were seeded into 96-well plates at a density of 5000 cells/well. After removing the medium, 100 μL of medium with 0.1% DMSO containing test compounds at different concentrations was added to each well and incubated at 37 °C for another 48 h. The CCK-8 solution was added and incubated for another 1 h, and then, the absorbance was detected with a microplate reader at a wavelength of 450 nm. The IC50 values were calculated by nonlinear regression analysis using GraphPad Prism 8.0.2. All the experiments were repeated at least three times.

T1 sequence (P02554 whole entry): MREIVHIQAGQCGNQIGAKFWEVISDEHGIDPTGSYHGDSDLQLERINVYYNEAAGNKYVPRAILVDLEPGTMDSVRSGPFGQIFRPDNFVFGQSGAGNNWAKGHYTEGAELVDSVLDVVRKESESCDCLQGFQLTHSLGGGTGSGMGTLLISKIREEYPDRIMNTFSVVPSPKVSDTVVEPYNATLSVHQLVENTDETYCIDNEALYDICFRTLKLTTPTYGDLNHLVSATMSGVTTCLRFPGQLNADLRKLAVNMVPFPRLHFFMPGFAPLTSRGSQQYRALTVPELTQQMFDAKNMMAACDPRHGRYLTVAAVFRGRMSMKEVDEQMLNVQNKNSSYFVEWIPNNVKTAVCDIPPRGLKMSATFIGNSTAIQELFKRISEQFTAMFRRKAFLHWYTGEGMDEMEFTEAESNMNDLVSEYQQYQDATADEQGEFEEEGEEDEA
T1 sequence (P02550 whole entry partner): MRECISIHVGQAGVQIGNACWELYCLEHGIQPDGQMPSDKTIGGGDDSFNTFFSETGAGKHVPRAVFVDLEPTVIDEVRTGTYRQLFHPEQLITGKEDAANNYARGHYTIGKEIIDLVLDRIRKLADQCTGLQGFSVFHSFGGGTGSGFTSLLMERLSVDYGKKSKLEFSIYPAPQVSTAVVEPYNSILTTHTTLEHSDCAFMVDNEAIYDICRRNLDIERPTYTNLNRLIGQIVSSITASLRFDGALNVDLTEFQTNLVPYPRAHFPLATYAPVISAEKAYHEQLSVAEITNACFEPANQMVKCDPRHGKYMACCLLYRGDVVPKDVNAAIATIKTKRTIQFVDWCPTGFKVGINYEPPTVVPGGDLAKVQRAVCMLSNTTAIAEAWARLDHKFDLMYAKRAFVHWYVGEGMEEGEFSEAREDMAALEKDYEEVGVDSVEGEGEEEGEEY

COc1cc(-n2ccc3ccc(-c4ccc(C)c(C#N)c4)cc32)cc(OC)c1OC [3g, 2-methyl-5-(1-(3,4,5-trimethoxyphenyl)-1H-indol-6-yl)benzonitrile]
effect on tubulin assembly ([1]; 50 μM): markedly suppressed tubulin assembly | effect on tubulin polymerization ([1]; 2.5–50 μM, absorbance at 340 nm): inhibited tubulin polymerization in a concentration-dependent manner | IC50 [2]: 1690 ± 410 nM
